According to patent publication US20240360081A1, “SULFONAMIDE OREXIN RECEPTOR AGONISTS AND USES THEREOF” (Jazz Pharmaceuticals Ireland Limited, priority 2021, published 2024):

Biological target: T1, human recombinant OX2 (hOX2) receptor expressed in CHO cells (Homo sapiens, UniProt O43614)
T1 construct: host or cells: CHO cells (hOX2-CHO)
T1 sequence (O43614 1-444): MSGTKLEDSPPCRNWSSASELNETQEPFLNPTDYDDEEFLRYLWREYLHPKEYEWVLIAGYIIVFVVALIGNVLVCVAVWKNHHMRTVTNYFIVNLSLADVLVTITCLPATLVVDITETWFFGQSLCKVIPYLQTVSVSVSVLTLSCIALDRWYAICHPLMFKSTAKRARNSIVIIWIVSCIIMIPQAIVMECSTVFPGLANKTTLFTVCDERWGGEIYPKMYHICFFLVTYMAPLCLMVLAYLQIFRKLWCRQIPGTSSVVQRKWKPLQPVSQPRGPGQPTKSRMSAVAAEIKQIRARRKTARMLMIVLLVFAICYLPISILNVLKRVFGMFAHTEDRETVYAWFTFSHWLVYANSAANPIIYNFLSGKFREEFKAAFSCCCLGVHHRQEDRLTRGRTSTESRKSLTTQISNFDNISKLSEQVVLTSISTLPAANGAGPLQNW
Test: IP-1 accumulation assay (IP-One HTRF) in hOX2-CHO cells
Type: cell-based
Details: 60 min at 37° C., 11 points CRC, response as % of maximal OX-A response
Protocol: The accumulation of Inositol-1 Monophosphate (IP-1) was measured using IP-One HTRF® Terbium cryptate based assay (Cisbio) in human recombinant OX1 (hOX1) and at OX2 (hOX2) receptors expressed in CHO cells (DiscoverX) according to the manufacturer's instructions for cells tested in suspension.
hOX1-CHO and hOX2-CHO cells were seeded into white 384-well plates at a density of 20,000 cells/well in Hank's Balanced Salt Solution (HBSS) containing 20 mM HEPES pH 7.4, 50 mM, LiCl and 0.1% and Bovine Serum Albumin (BSA).
Compounds of the present disclosure were tested in a 11 points concentration response curve (CRC) serially diluted in neat DMSO at 200 fold concentrations and added by Echo acoustic liquid handling (Labcyte) to the cells (0.5% DMSO final in the assay). After 60 min of incubation at 37° C. detection reagents, IP1-d2 tracer and anti-IP1-cryptate were diluted in lysis buffer according to the manufacturer's descriptions and added to the cells.
Following 60 min incubation at room temperature, time-resolved fluorescence (HTRF) was measured at 615 nm and 665 nm by Envision Multilabel reader (Perkin Elmer) and the HTRF ratio (A665/A615x104) was calculated.
The IP-1 accumulation response was expressed as percentage of the maximal OX-A response.
Curve fitting and EC50 estimations were carried out using a four-parameter logistic model using XLfit Software. Mean data of EC50 are calculated from at least two independent experiments performed in duplicates.
In the Tables, below Category A corresponds to compounds displaying an […]<100 nM, Category B between 100 nM and 1,000 nM, Category C between 1,000 nM and 10,000 nM and Category D above 10,000 nM.

Row | Compound | EC50
1 | Cc1cc(C(CNS(=O)(=O)CF)CO[C@H]2CC[C@@H](c3cccc(F)c3)CC2)c(=O)n(C)c1 (single isomer, unassigned; isomer 1) [Example 5n, (R or S) N-[2-(1,5-dimethyl-2-oxo-1,2-dihydropyridin-3-yl)-3-{[(CIS)-4-(3-fluorophenyl)cyclohexyl]oxy}propyl]-1-fluoromethanesulfonamide—Isomer 1] | < 100 nM
2 | Cc1cc(C(CNS(=O)(=O)N(C)C)CO[C@H]2CC[C@@H](c3cccc(F)c3)CC2)c(=O)n(C)c1 (single isomer, unassigned; isomer 1) [Example 5r, (R or S) 3-[1-[(dimethylsulfamoyl)amino]-3-{[(CIS)-4-(3-fluorophenyl)cyclohexyl]oxy}propan-2-yl]-1,5-dimethyl-1,2-dihydropyridin-2-one—Isomer 1] | < 100 nM
3 | Cc1cc(C(CNS(C)(=O)=O)CO[C@H]2CC[C@@H](c3cccc(F)c3)CC2)c(=O)n(C(F)F)c1 (single isomer, unassigned; isomer 1) [Example 5y, (R or S) N-[2-[1-(difluoromethyl)-5-methyl-2-oxo-1,2-dihydropyridin-3-yl]-3-{[(CIS)-4-(3-fluorophenyl)cyclohexyl]oxy}propyl]methanesulfonamide—Isomer 1] | < 100 nM
4 | Cc1ccn(C(CNS(C)(=O)=O)CO[C@H]2CC[C@@H](c3ccccc3)CC2)n1 (single isomer, unassigned; isomer 2) [Example 2ac, (S or R) N-[2-(3-methyl-1H-pyrazol-1-yl)-3-{[(CIS)-4-phenylcyclohexyl]oxy}propyl]methanesulfonamide-Isomer 2] | > 10000 nM
5 | Cc1ccnn1C(CNS(C)(=O)=O)CO[C@H]1CC[C@@H](c2ccccc2)CC1 (single isomer, unassigned; isomer 2) [Example 2ae, (S or R) N-[2-(5-methyl-1H-pyrazol-1-yl)-3-{[(CIS)-4-phenylcyclohexyl]oxy}propyl]methanesulfonamide-Isomer 2] | > 10000 nM
6 | Cc1cc(C)c(=O)n(C(CNS(C)(=O)=O)CO[C@H]2CC[C@@H](c3cccc(F)c3)CC2)c1 (single isomer, unassigned; isomer 2) [Example 2ag, (S or R) N-[2-(3,5-dimethyl-2-oxo-1,2-dihydropyridin-1-yl)-3-{[(CIS)-4-(3-fluorophenyl)cyclohexyl]oxy}propyl]methanesulfonamide-Isomer 2] | 1000 to 10000 nM
7 | Cc1cc(C)c(=O)n(C(CNS(=O)(=O)C2CC2)CO[C@H]2CC[C@@H](c3cccc(F)c3)CC2)c1 (single isomer, unassigned; isomer 2) [Example 2an, (S or R) N-[2-(3,5-dimethyl-2-oxo-1,2-dihydropyridin-1-yl)-3-{[(CIS)-4-(3-fluorophenyl)cyclohexyl]oxy}propyl]cyclopropanesulfonamide-Isomer 2] | 1000 to 10000 nM
8 | Cc1cc(C)c(=O)n(C(CNS(=O)(=O)N(C)C)CO[C@H]2CC[C@@H](c3cccc(F)c3)CC2)c1 (single isomer, unassigned; isomer 2) [Example 2as, (S or R) 1-[1-[(dimethylsulfamoyl)amino]-3-{[(CIS)-4-(3-fluorophenyl)cyclohexyl]oxy}propan-2-yl]-3,5-dimethyl-1,2-dihydropyridin-2-one-Isomer 2] | 100 to 1000 nM
9 | Cc1cc(C)c(=O)n(C(CNS(=O)(=O)CF)CO[C@H]2CC[C@@H](c3cccc(F)c3)CC2)c1 (single isomer, unassigned; isomer 2) [Example 2av, (S or R) N-[2-(3,5-dimethyl-2-oxo-1,2-dihydropyridin-1-yl)-3-{[(CIS)-4-(3-fluorophenyl)cyclohexyl]oxy}propyl]-1-fluoromethanesulfonamide-Isomer 2] | 100 to 1000 nM
10 | Cc1cc(C)c(=O)n(C(CNS(C)(=O)=O)COC2CCN(c3ncc(F)cn3)CC2)c1 (single isomer, unassigned; isomer 2) [Example 2ba, (S or R) N-[2-(3,5-dimethyl-2-oxo-1,2-dihydropyridin-1-yl)-3-{[1-(5-fluoropyrimidin-2-yl)piperidin-4-yl]oxy}propyl]methanesulfonamide-Isomer 2] | > 10000 nM
11 | CS(=O)(=O)NCC(CO[C@H]1CC[C@@H](c2ccccc2)CC1)n1cccc(F)c1=O (single isomer, unassigned; isomer 2) [Example 2h, (S or R) N-[2-(3-fluoro-2-oxo-1,2-dihydropyridin-1-yl)-3-{[(CIS)-4-phenylcyclohexyl]oxy}propyl]methanesulfonamide-Isomer 2] | > 10000 nM
12 | Cc1ccn(C(CNS(C)(=O)=O)CO[C@H]2CC[C@@H](c3ccccc3)CC2)c(=O)c1C (single isomer, unassigned; isomer 2) [Example 2o, (S or R) N-[2-(3,4-dimethyl-2-oxo-1,2-dihydropyridin-1-yl)-3-{[(CIS)-4-phenylcyclohexyl]oxy}propyl]methanesulfonamide-Isomer 2] | > 10000 nM
13 | Cc1cc(C)c(=O)n(C(CNS(C)(=O)=O)CO[C@H]2CC[C@@H](c3ccccc3)CC2)c1 (single isomer, unassigned; isomer 2) [Example 2u, (S or R) N-[2-(3,5-dimethyl-2-oxo-1,2-dihydropyridin-1-yl)-3-{[(CIS)-4-phenylcyclohexyl]oxy}propyl]methanesulfonamide-Isomer 2] | 1000 to 10000 nM

Continued, values first:

Row | EC50 | Compound
14 | < 100 nM | Cc1cc(C(CNS(C)(=O)=O)CO[C@H]2CC[C@@H](c3cccc(F)c3)CC2)c(=O)n(C)c1 (single isomer, unassigned; isomer 1) [Example 5c, (R or S) N-[2-(1,5-dimethyl-2-oxo-1,2-dihydropyridin-3-yl)-3-{[(CIS)-4-(3-fluorophenyl)cyclohexyl]oxy}propyl]methanesulfonamide—Isomer 1]
15 | < 100 nM | Cc1cc(C)[n+]([O-])c(C(CNS(C)(=O)=O)CO[C@H]2CC[C@@H](c3ccccc3)CC2)c1 (single isomer, unassigned; isomer 1) [Example 5k, (R or S) 2-[1-methanesulfonamido-3-{[(CIS)-4-phenylcyclohexyl]oxy}propan-2-yl]-4,6-dimethylpyridin-1-ium-1-olate—Isomer 1]
16 | > 10000 nM | CS(=O)(=O)NCC(CO[C@H]1CC[C@@H](c2ccccc2)CC1)n1ccccc1=O (single isomer, unassigned; isomer 2) [Example 1b, (S or R) N-[2-(2-oxo-1,2-dihydropyridin-1-yl)-3-{[(CIS)-4-phenylcyclo-hexyl]oxy}propyl] methane-sulfonamide- Isomer 2]
17 | 100 to 1000 nM | Cc1cccn(C(CNS(C)(=O)=O)CO[C@H]2CC[C@@H](c3ccccc3)CC2)c1=O (single isomer, unassigned; isomer 2) [Example 1e, (S or R) N-[(2R)-2-(3-methyl-2-oxo-1,2-dihydropyridin-1-yl)-3-{[(CIS)-4-phenylcyclo-hexyl]oxy}propyl] methane-sulfonamide- Isomer 2]
18 | 1000 to 10000 nM | Cc1cc(Cl)cn(C(CNS(C)(=O)=O)CO[C@H]2CC[C@@H](c3cccc(F)c3)CC2)c1=O (single isomer, unassigned; isomer 2) [Example 2ai, (S or R) N-[2-(5-chloro-3-methyl-2-oxo-1,2-dihydropyridin-1-yl)-3-{[(CIS)-4-(3-fluorophenyl)cyclohexyl]oxy}propyl]methanesulfonamide-Isomer 2]
19 | 100 to 1000 nM | CCc1cccn(C(CNS(C)(=O)=O)CO[C@H]2CC[C@@H](c3ccccc3)CC2)c1=O (single isomer, unassigned; isomer 2) [Example 2b, (S or R) N-[2-(3-ethyl-2-oxo-1,2-dihydropyridin-1-yl)-3-{[(CIS)-4-phenylcyclohexyl]oxy}propyl]methanesulfonamide-Isomer 2]
20 | > 10000 nM | Cc1ccc(=O)n(C(CNS(C)(=O)=O)CO[C@H]2CC[C@@H](c3ccccc3)CC2)c1 (single isomer, unassigned; isomer 2) [Example 2k, (S or R) N-[2-(5-methyl-2-oxo-1,2-dihydropyridin-1-yl)-3-{[(CIS)-4-phenylcyclohexyl]oxy}propyl]methanesulfonamide-Isomer 2]
21 | 1000 to 10000 nM | Cc1cccn(C(CO[C@H]2CC[C@@H](c3ccccc3)CC2)C(C)NS(C)(=O)=O)c1=O (single isomer, unassigned; isomer 2) [Example 3b, (2S or 2R) and (3S or 3R) N-[3-(3-methyl-2-oxo-1,2-dihydropyridin-1-yl)-4-{[(CIS)-4-phenylcyclohexyl]oxy}butan-2-yl]methanesulfonamide—Isomer 2]
